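Briefly, cells in 96-well plates were exposed to five compound concentrations for 48 h, and endpoints were estimated by linear interpolation. Abbreviation: GI50, concentration required for 50% inhibition of growth. Definition used: TGI = concentration required for complete inhibition of growth.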
Key:
Assay in all cases: DTP human tumour cell line panel, 48 h
BT-549 breast = tested on: BT-549 breast
DU-145 prostate = tested on: DU-145 prostate
EKVX NSCLC = tested on: EKVX NSCLC
M14 melanoma = tested on: M14 melanoma
MDA-MB-435 = tested on: MDA-MB-435
NCI-H226 lung = tested on: NCI-H226 lung
OVCAR-3 ovarian = tested on: OVCAR-3 ovarian
UACC-62 melanoma = tested on: UACC-62 melanoma
SF-539 CNS = tested on: SF-539 CNS
PC-3 prostate = tested on: PC-3 prostate

Clc1ccc2nnnn2n1
GI50 (BT-549 breast): 2870 nM
TGI (BT-549 breast): 9.92 µM
GI50 (DU-145 prostate): 2310 nM
TGI (DU-145 prostate): 6.41 µM
GI50 (EKVX NSCLC): 18 µM
TGI (EKVX NSCLC): 62.3 µM
GI50 (M14 melanoma): 1980 nM
TGI (M14 melanoma): 6.26 µM
GI50 (MDA-MB-435): 2130 nM
TGI (MDA-MB-435): 5.39 µM
GI50 (NCI-H226 lung): 4.84 µM
TGI (NCI-H226 lung): 35.9 µM
GI50 (OVCAR-3 ovarian): 2600 nM
TGI (OVCAR-3 ovarian): 6.66 µM
GI50 (UACC-62 melanoma): 2770 nM
TGI (UACC-62 melanoma): 27.5 µM

COc1ccc(CC(=O)NCCc2ccc(OC)c(OC)c2)cc1Br
TGI (EKVX NSCLC): > 100 µM
TGI (NCI-H226 lung): > 100 µM
TGI (SF-539 CNS): > 100 µM
TGI (UACC-62 melanoma): > 100 µM

Cc1c(C(=O)CC(=O)C(=O)Nc2ccc(Cl)cc2)[n+](=O)c2ccccc2n1[O-]
TGI (EKVX NSCLC): > 100 µM
TGI (M14 melanoma): > 100 µM
TGI (NCI-H226 lung): > 100 µM
TGI (OVCAR-3 ovarian): > 100 µM
TGI (SF-539 CNS): > 100 µM
TGI (UACC-62 melanoma): > 100 µM

CC(NCCC(=O)N(CCC(=O)N(CCC(=O)N(CCC(=O)N(CCC(=O)N(CCC(=O)N(CCC(=O)N(CCC(=O)N(CCC(=O)N(CCC(=O)O)[C@H](C)c1ccccc1)[C@H](C)c1ccccc1)[C@H](C)c1ccccc1)[C@H](C)c1ccccc1)[C@H](C)c1ccccc1)[C@H](C)c1ccccc1)[C@H](C)c1ccccc1)[C@H](C)c1ccccc1)[C@H](C)c1ccccc1)c1ccccc1 (stereo not given in full)
GI50 (DU-145 prostate): 2340 nM
TGI (DU-145 prostate): 12.3 µM
GI50 (EKVX NSCLC): 3.73 µM
TGI (EKVX NSCLC): > 75 µM
GI50 (M14 melanoma): 1770 nM
TGI (M14 melanoma): 5.49 µM
GI50 (MDA-MB-435): 1710 nM
TGI (MDA-MB-435): > 16.1 µM
GI50 (NCI-H226 lung): 3.62 µM
TGI (NCI-H226 lung): 20.2 µM
GI50 (OVCAR-3 ovarian): 2040 nM
TGI (OVCAR-3 ovarian): 19.1 µM
GI50 (PC-3 prostate): 2660 nM
TGI (PC-3 prostate): > 75 µM
GI50 (SF-539 CNS): 1490 nM
TGI (SF-539 CNS): 3.67 µM
GI50 (UACC-62 melanoma): 1320 nM
TGI (UACC-62 melanoma): 2.96 µM

Cc1cc(NS(=O)(=O)c2ccc(NC(=O)c3ccc(Cl)c4c(Nc5ccc(S(=O)(=O)N=C(N)N)cc5)c5ccccc5nc34)cc2)no1
TGI (EKVX NSCLC): > 100 µM
TGI (M14 melanoma): > 100 µM
TGI (OVCAR-3 ovarian): 83.7 µM
TGI (SF-539 CNS): > 100 µM
TGI (UACC-62 melanoma): > 100 µM

COC(=O)C1=C(C(=O)OC)SC(=C(Cl)C(=S)Nc2ccccc2O)S1
GI50 (BT-549 breast): 2340 nM
TGI (BT-549 breast): 35.5 µM
GI50 (DU-145 prostate): 15700 nM
TGI (DU-145 prostate): > 50 µM
GI50 (M14 melanoma): 352 nM
TGI (M14 melanoma): 12.7 µM
GI50 (MDA-MB-435): 3820 nM
TGI (MDA-MB-435): 17 µM
GI50 (NCI-H226 lung): 13.9 µM
TGI (NCI-H226 lung): 39.3 µM
GI50 (OVCAR-3 ovarian): 7410 nM
TGI (OVCAR-3 ovarian): 22.8 µM
GI50 (PC-3 prostate): 22200 nM
TGI (PC-3 prostate): > 50 µM
GI50 (SF-539 CNS): 15900 nM
TGI (SF-539 CNS): 39 µM
GI50 (UACC-62 melanoma): 8840 nM
TGI (UACC-62 melanoma): 18.6 µM

COc1cc(Cl)cc(-c2nn(-c3cccc(NC(=O)Nc4cc(C(F)(F)F)cc(C(F)(F)F)c4)c3)cc2-c2ccncc2)c1
GI50 (BT-549 breast): 2340 nM
TGI (BT-549 breast): 6.78 µM
GI50 (DU-145 prostate): 530 nM
TGI (DU-145 prostate): 12.4 µM
GI50 (M14 melanoma): 481 nM
TGI (M14 melanoma): 2.3 µM
GI50 (MDA-MB-435): 684 nM
TGI (MDA-MB-435): 2.62 µM
GI50 (NCI-H226 lung): 0.965 µM
TGI (NCI-H226 lung): 7.67 µM
GI50 (OVCAR-3 ovarian): 364 nM
TGI (OVCAR-3 ovarian): 2.04 µM
GI50 (PC-3 prostate): 311 nM
TGI (PC-3 prostate): 1.62 µM
GI50 (SF-539 CNS): 1480 nM
TGI (SF-539 CNS): 3.61 µM
GI50 (UACC-62 melanoma): 416 nM
TGI (UACC-62 melanoma): 1.71 µM

CN1C(=O)C(CC(=O)O)NC1=S (stereo not given)
TGI (BT-549 breast): > 100 µM
TGI (DU-145 prostate): > 100 µM
TGI (EKVX NSCLC): > 100 µM
TGI (M14 melanoma): > 100 µM
TGI (MDA-MB-435): > 100 µM
TGI (OVCAR-3 ovarian): > 100 µM
TGI (PC-3 prostate): > 100 µM
TGI (SF-539 CNS): > 100 µM
TGI (UACC-62 melanoma): > 100 µM

O=C(Nc1ccc2[nH]c(=S)sc2c1)Nc1ccccc1F
GI50 (BT-549 breast): 32000 nM
TGI (BT-549 breast): > 100 µM
GI50 (DU-145 prostate): 59400 nM
TGI (DU-145 prostate): > 100 µM
GI50 (EKVX NSCLC): 22.3 µM
TGI (EKVX NSCLC): > 100 µM
GI50 (M14 melanoma): 42400 nM
TGI (M14 melanoma): > 100 µM
GI50 (MDA-MB-435): 23100 nM
TGI (MDA-MB-435): > 100 µM
GI50 (OVCAR-3 ovarian): 34800 nM
TGI (OVCAR-3 ovarian): > 100 µM
GI50 (PC-3 prostate): 21500 nM
TGI (PC-3 prostate): > 100 µM
GI50 (SF-539 CNS): 29600 nM
TGI (SF-539 CNS): > 100 µM
GI50 (UACC-62 melanoma): 18500 nM
TGI (UACC-62 melanoma): > 100 µM

CC[C@@]1(OC(=O)CN)C(=O)OCc2c1cc1n(c2=O)Cc2cc3c(N)cccc3nc2-1
GI50 (BT-549 breast): 37.2 nM
TGI (BT-549 breast): 1.63 µM
GI50 (EKVX NSCLC): 0.265 µM
TGI (EKVX NSCLC): > 100 µM
GI50 (MDA-MB-435): 47.6 nM
TGI (MDA-MB-435): 0.336 µM
GI50 (NCI-H226 lung): 0.0216 µM
TGI (NCI-H226 lung): 0.498 µM
GI50 (OVCAR-3 ovarian): 74.9 nM
TGI (OVCAR-3 ovarian): 3.77 µM
GI50 (PC-3 prostate): 160 nM
TGI (PC-3 prostate): > 100 µM
GI50 (SF-539 CNS): < 10 nM
TGI (SF-539 CNS): < 0.0153 µM

O=C(NCCCCCCNC(=O)OCCSCCn1cc(C(=O)NC(=O)OCc2ccccc2)c(=O)[nH]c1=O)OCCSCCn1cc(C(=O)NC(=O)OCc2ccccc2)c(=O)[nH]c1=O
TGI (EKVX NSCLC): > 100 µM
TGI (M14 melanoma): > 100 µM
TGI (NCI-H226 lung): > 100 µM
TGI (OVCAR-3 ovarian): > 100 µM
TGI (UACC-62 melanoma): > 100 µM

O=C(c1ccccc1)[C@@H]1C[C@H](Sc2ccccc2)c2cc(Cl)ccc2N1
TGI (EKVX NSCLC): 50.3 µM
TGI (M14 melanoma): 74.5 µM
TGI (NCI-H226 lung): 62.9 µM
TGI (OVCAR-3 ovarian): 52.2 µM
TGI (SF-539 CNS): 33.5 µM
TGI (UACC-62 melanoma): 51.6 µM

NC1=C(c2nc(-c3ccccc3)cs2)C(c2ccc(Br)cc2)c2c(c3ccccc3oc2=O)O1 (stereo not given)
GI50 (DU-145 prostate): 128 µg/mL
TGI (DU-145 prostate): > 150 µg/mL
GI50 (EKVX NSCLC): 50.2 µg/mL
TGI (EKVX NSCLC): > 150 µg/mL
GI50 (M14 melanoma): 90.1 µg/mL
TGI (M14 melanoma): > 150 µg/mL
GI50 (MDA-MB-435): > 150 µg/mL
TGI (MDA-MB-435): > 150 µg/mL
GI50 (NCI-H226 lung): 22.3 µg/mL
TGI (NCI-H226 lung): 94 µg/mL
GI50 (OVCAR-3 ovarian): > 150 µg/mL
TGI (OVCAR-3 ovarian): > 150 µg/mL
GI50 (PC-3 prostate): > 150 µg/mL
TGI (PC-3 prostate): > 150 µg/mL
GI50 (SF-539 CNS): 104 µg/mL
TGI (SF-539 CNS): > 150 µg/mL
GI50 (UACC-62 melanoma): 52.1 µg/mL
TGI (UACC-62 melanoma): > 150 µg/mL

c1ccc2cc3[s+]snc3cc2c1
TGI (EKVX NSCLC): > 100 µM
TGI (M14 melanoma): > 100 µM
TGI (NCI-H226 lung): > 100 µM
TGI (OVCAR-3 ovarian): > 100 µM
TGI (SF-539 CNS): > 100 µM
TGI (UACC-62 melanoma): > 100 µM

COc1ccc(/C(=N\O)c2cc(C)c(OC)c(C)c2)cc1O
GI50 (BT-549 breast): 26.1 nM
TGI (BT-549 breast): > 100 µM
GI50 (DU-145 prostate): 34.9 nM
TGI (DU-145 prostate): > 100 µM
GI50 (EKVX NSCLC): 0.0613 µM
TGI (EKVX NSCLC): > 100 µM
GI50 (M14 melanoma): < 10 nM
TGI (M14 melanoma): > 100 µM
GI50 (MDA-MB-435): < 10 nM
GI50 (NCI-H226 lung): 11.2 µM
TGI (NCI-H226 lung): > 100 µM
GI50 (OVCAR-3 ovarian): < 10 nM
TGI (OVCAR-3 ovarian): > 100 µM
GI50 (PC-3 prostate): < 10 nM
TGI (PC-3 prostate): > 100 µM
GI50 (UACC-62 melanoma): < 10 nM
TGI (UACC-62 melanoma): > 100 µM

O=C(O)CCC(NC(=O)c1ccccc1)C(=O)O (stereo not given)
TGI (EKVX NSCLC): > 100 µM
TGI (M14 melanoma): > 100 µM
TGI (OVCAR-3 ovarian): > 100 µM
TGI (SF-539 CNS): > 100 µM
TGI (UACC-62 melanoma): > 100 µM

COC(=O)NN=C1C(C)(C)C(=O)C1(C)C
TGI (EKVX NSCLC): > 100 µM
TGI (M14 melanoma): > 100 µM
TGI (NCI-H226 lung): > 100 µM
TGI (OVCAR-3 ovarian): > 100 µM
TGI (SF-539 CNS): > 100 µM
TGI (UACC-62 melanoma): > 100 µM

CC(C)(CN1CCCCC1)C(=O)/C=C/c1ccc(Cl)cc1
TGI (EKVX NSCLC): 10 µM
TGI (M14 melanoma): 9.79 µM
TGI (NCI-H226 lung): 14.7 µM
TGI (OVCAR-3 ovarian): 11.9 µM
TGI (SF-539 CNS): 5.41 µM
TGI (UACC-62 melanoma): 20.2 µM

O=C1C2C=CC(C2)C(c2ccc(O)cc2)N1O (stereo not given)
TGI (EKVX NSCLC): > 100 µM
TGI (M14 melanoma): > 100 µM
TGI (NCI-H226 lung): > 100 µM
TGI (OVCAR-3 ovarian): > 100 µM
TGI (UACC-62 melanoma): > 100 µM
